Reference: paper PMC5473854, “Structure of the human TRiC/CCT Subunit 5 associated with hereditary sensory neuropathy” (Scientific Reports, 2017)

Target: T1, human CCT5 (TRiC subunit 5) homo-oligomeric complex (Homo sapiens, UniProt P48643, H147R)
T1 construct: recombinant from pET21a in E. coli BL21(DE3)RIL, Histrap purified (tag not described here); double homo-octameric ring (two rings of eight, homo-hexadecamer)
Assay: X-ray crystal structure, […] Å
Settings: co-crystallised with 5.0 mM ADP; nucleotide-binding site of equatorial domain; 4 ADP per 4 subunits in asymmetric unit

T1 sequence (P48643 whole entry H147R, one chain of several): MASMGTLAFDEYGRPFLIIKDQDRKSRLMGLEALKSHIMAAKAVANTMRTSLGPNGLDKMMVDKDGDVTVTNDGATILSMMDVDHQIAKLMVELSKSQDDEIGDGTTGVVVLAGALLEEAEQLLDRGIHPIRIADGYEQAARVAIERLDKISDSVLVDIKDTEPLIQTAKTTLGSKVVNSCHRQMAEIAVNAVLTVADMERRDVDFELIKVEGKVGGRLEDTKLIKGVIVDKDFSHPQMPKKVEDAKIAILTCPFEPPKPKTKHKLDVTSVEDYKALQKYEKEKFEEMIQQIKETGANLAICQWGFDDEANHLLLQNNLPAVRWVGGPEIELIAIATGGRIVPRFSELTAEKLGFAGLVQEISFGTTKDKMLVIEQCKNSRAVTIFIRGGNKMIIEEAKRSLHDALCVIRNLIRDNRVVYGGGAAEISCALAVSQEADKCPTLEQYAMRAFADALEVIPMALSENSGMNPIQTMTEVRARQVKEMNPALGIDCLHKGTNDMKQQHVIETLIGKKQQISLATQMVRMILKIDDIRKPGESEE

Nc1ncnc2c1ncn2[C@@H]1O[C@H](COP(=O)(O)OP(=O)(O)O)[C@@H](O)[C@H]1O [ADP]
X-ray crystal structure, 3.6 Å: the CCT5-H147R structure was solved in complex with the nucleotide ADP
